According to patent publication US9205064B2, “Methods for the diagnosis of oncological disorders using epimetabolic shifters, multidimensional intracellular molecules, or environmental influencers” (Berg LLC, priority 2009, dated 2015):

Columns and labels:
SK-MEL28 = assay: Nexin assay for apoptosis (Annexin-V-PE/7-AAD, flow cytometry); assay type: cell-based; conditions: 50 μM and 100 μM Q10, 24 hours
Source text: (§1) The 7AAD dye will enter into cells with permeabilized cell membranes; primarily those cells that are in late apoptosis. Annexin-V-PE is a dye that binds to Phosphotidyl serine, which is exposed on the outer surface of the plasma membrane in early apoptotic cells. The Nexin reagent thus can be used to differentiate between different populations of apoptotic cells in a flow cytometer.

PC-3 = assay: as above; assay type: cell-based; conditions: 50 μM and 100 μM Q10, 24 hours; less than PaCa2
Source text: as §1

MCF-7 = assay: as above; assay type: cell-based; conditions: 50 μM and 100 μM Q10, 24 hours
Source text: as §1

[1] = test system: PaCa-2 pancreatic cancer cells; assay: SeaHorse XF analyzer OCR and ECAR; assay type: cell-based
Source text: (§2) Environmental influencers (e.g., MIMs or Epi-shifters) may also be identified by changes in cellular energetics. One example of the measurement of cellular energetics are the real-time measures of the consumption of molecular oxygen and/or the change in pH of the media of a cell culture. For example, the ability of a potential epi-shifter to modulate the metabolic state of a cell may be analyzed using, for example, the XF24 Analyzer (Seahorse, Inc.). This technology allows for real time detection of oxygen and pH changes in a monolayer of cells in order to evaluate the bioenergetics of a cell microenvironment. The XF24 Analyzer measures and compares the rates of oxygen consumption (OCR), which is a measure of aerobic metabolism, and extracellular acidification (ECAR), which is a measure of glycolysis, both key indicators of cellular energetics.
(§3) (SeaHorse Biosciences Inc, North Billerica, Mass.).
In contrast, cancer cells (e.g., MCF-7, PaCa-2) are inherently primed to culture at higher levels of glucose compared to normal cells due to their glycolytic phenotype for maintenance in culture.
In contrast to normal cells, cancer cells are phenotypically primed to use high glucose for ATP generation (enhanced glycolysis) resulting in higher ECAR (Table 55, ECAR for untreated normoxia 17 mM) at 21 mpH/min. […]

SCC cells [2] = assay: Real-time PCR Apoptosis Array; assay type: cell-based
Description: The control cells were untreated cells.
RNA was quantified by measuring Optical Density at 260 nm.
The genes in the Apoptosis array that appear to be regulated in SCC cells are described in Table 7. […] By 24 hours, the regulation is decreased.

SCC cells [3] = assay: 2-D gel electrophoresis proteomic analysis with mass spectrometry identification; assay type: cell-based; conditions: 100 μM Q10, 24 hr
Source text: The gels were run in duplicate.

HDFa cells = assay: SeaHorse XF analyzer OCR and ECAR; assay type: cell-based, human; conditions: normoxic and hypoxic, 5.5 mM and 22 mM glucose
Source text: as §2, §3
In this experiment, the OCR and extracellular acidification rate (ECAR) in normal cells lines were obtained in the presence and absence of CoQ10 to determine baseline values. It was observed that in its native nutrient environment, the basal OCR rates in normal cells lines are different, and are usually a function of the physiological roles of the cells in the body.
FIGS. 29 and 30 describe the OCR in HDFa and HASMC cells grown in physiologically normal glucose (about 4.6 mM) and high glucose (hyperglycemic) conditions.
Table 53, below, describes the ECAR values (mpH/min) in HDFa cells in the presence or absence of CoQ10 under normoxic and hypoxic conditions at 5.5 mM and 22 mM glucose.

SMILES: COC1=C(OC)C(=O)C(C/C=C(\C)CC/C=C(\C)CC/C=C(\C)CC/C=C(\C)CC/C=C(\C)CC/C=C(\C)CC/C=C(\C)CC/C=C(\C)CC/C=C(\C)CCC=C(C)C)=C(C)C1=O [Q10, Coenzyme Q10]
- apoptotic population (SK-MEL28): increase only in early apoptotic population
- early and late apoptotic population (PC-3): increase
- apoptotic population (MCF-7): increase only in early apoptotic population
- OCR values ([1]; absence and presence of stressors): consistent reduction
- ECAR rates ([1]; normoxia, high glucose): significant decrease
- AKT1 mRNA Regulation (SCC cells [2]; 100 μM Q10, 6 hours): Down regulated at 6 hours and then
- BCL2L1 mRNA Regulation (SCC cells [2]; 100 μM Q10, 6 hours): Down regulated at 6 hours and then
- BIRC3 mRNA Regulation (SCC cells [2]; 100 μM Q10, 6 hours): Down regulated at 6 hours.
- CARD6 mRNA Regulation (SCC cells [2]; 100 μM Q10, 6 hours): Down regulated at 6 hours.
- CD27 mRNA Regulation (SCC cells [2]; 100 μM Q10, 6 hours): Down regulated at 6 hours.
- CD40 mRNA Regulation (SCC cells [2]; 100 μM Q10, 6 hours): Down regulated at 6 hours.
- CD70 mRNA Regulation (SCC cells [2]; 100 μM Q10, 6 hours): Down regulated at 6 hours.
- TNFRSF9 mRNA Regulation (SCC cells [2]; 100 μM Q10, 6 hours): Down regulated at 6 hours.
- TNFRSF21 mRNA Regulation (SCC cells [2]; 100 μM Q10, 6 hours): Down regulated at 6 hours.
- TNFRSF25 mRNA Regulation (SCC cells [2]; 100 μM Q10, 6 hours): Down regulated at 6 hours and then
- TP73 mRNA Regulation (SCC cells [2]; 100 μM Q10, 6 hours): Down regulated at 6 hours and then
- AKT1 mRNA Regulation (SCC cells [2]; 100 μM Q10, 24 hours): up regulated at 24 hours.
- BAG4 mRNA Regulation (SCC cells [2]; 100 μM Q10, 24 hours): Up regulated at 24 hours.
- BAX mRNA Regulation (SCC cells [2]; 100 μM Q10, 24 hours): Up regulated at 24 hours.
- BCL2L1 mRNA Regulation (SCC cells [2]; 100 μM Q10, 24 hours): up regulated at 24 hours.
- BCL2 mRNA Regulation (SCC cells [2]; 100 μM Q10, 24 hours): Up regulated at 24 hours.
- BNIP3 mRNA Regulation (SCC cells [2]; 100 μM Q10, 24 hours): Down regulated at 24 hours.
- CASP6 mRNA Regulation (SCC cells [2]; 100 μM Q10, 24 hours): Up regulated at 24 hours.
- CASP7 mRNA Regulation (SCC cells [2]; 100 μM Q10, 24 hours): Up regulated at 24 hours.
- FADD mRNA Regulation (SCC cells [2]; 100 μM Q10, 24 hours): Up regulated at 24 hours.
- GADD45A mRNA Regulation (SCC cells [2]; 100 μM Q10, 24 hours): Up regulated at 24 hours.
- HRK mRNA Regulation (SCC cells [2]; 100 μM Q10, 24 hours): Up regulated at 24 hours.
- TNFRSF25 mRNA Regulation (SCC cells [2]; 100 μM Q10, 24 hours): up regulated at 24 hours.
- TNFSF10 mRNA Regulation (SCC cells [2]; 100 μM Q10, 24 hours): Up regulated at 24 hours.
- TP53 mRNA Regulation (SCC cells [2]; 100 μM Q10, 24 hours): Up regulated at 24 hours.
- TP73 mRNA Regulation (SCC cells [2]; 100 μM Q10, 24 hours): up regulated at 24 hours.
- TRAF2 mRNA Regulation (SCC cells [2]; 100 μM Q10, 24 hours): Up regulated at 24 hours.
- HSP 70, spot 116: Response (further) (SCC cells [3]): decrease at 24 hr
- NM23 protein (NME1), spot 54: Response (SCC cells [3]): decrease at 24 hr
- influence on ECAR values (HDFa cells): minimal influence
